Consider five compounds from patent EP1383793B1 (priority 2000, dated 2001).

The target in data set [1] is T1, IR (Homo sapiens, UniProt P06213).
T1 construct: composed of the extracellular domains of both the α and β chains of the natural receptor; made in house; background b13 names human embryonic kidney 293 cells for the Bass et al. construct
As to the kind of experiment: Phage ELISA, binding of phage-displayed peptides to IR. As to the method:
Amino acid sequences comprising the motif of Formulas 1 through 10. […] Fifty microliters of this solution was added to an appropriate number of wells in a 96-well microtiter plate (MaxiSorp plates, Nunc) and incubated overnight at 4°C. […] To isolate specific binders, each library was panned against a soluble form of the human IR. This IR is composed of the extracellular domains of both the α and β chains of the natural receptor, as well as the constant domain from immunoglobulin Fc, retaining the β-α-α-β structure described above. Because the IR is expressed in a eukaryotic system, disulfide bond formation and glycosylation patterns should mimic the wild-type receptor. The details of this recombinant protein construct are described in Bass et al. (1996). Phage ELISA. […] The wells were blocked with 200 µl of MPBS for 1.5 h at RT. […] Peptides were added as noted below and allowed to incubate at RT for 3 h. The plates were washed 3 times with PBST. A solution of 1:3000 diluted HRP:Anti-M13 conjugate at 100 µl per well of was added for 1 h. Following a repeat of the washing, 100 µl of ABTS was added for 15-30 min. […] Phage ELISA. […] Peptides were added as noted below and allowed to incubate at RT for 3 h. […] A solution of 1:3000 diluted HRP:Anti-M13 Conjugate at 100 µl per well of was added for 1 h. Following a repeat of the washing, 100 µl of ABTS was added for 15-30 min. The OD405 was measured using a SpectraMax 340 Microplate Spectrophotometer.

Data set [2] concerns the target T2, IGF-1R (Homo sapiens, UniProt P08069).
T2 construct: Soluble IGF-1R was obtained from R&D Systems; purchased R&D Systems 391-GR/CF
Put plainly: Competitive phage ELISA with IGF-1 on IGF-1R. It counts as binding. As to the method:
For IC50 determinations in a competitive ELISA, microtiter plates were coated with IGF-1R and blocked as described. Phage were prepared as described. Prior to addition of phage to plates, the peptide or recombinant variable antibody or fragment ("rVab"), or an appropriate control, was diluted in PBS and added to duplicate wells (100 µl/well). After incubation for 1 h at RT, the prepared phage were added to each well (100 µl/well) without removing the peptide or rVab solution. After incubation for 1 h at RT, the wells were washed and the color developed as described above.
The clones were next analyzed for binding to the receptor's active site (Figures 20A and 20B).
For IC50 determinations, microtiter plates were coated with IGF-1R and blocked as described. Phage and soluble rVabs were prepared as described above. […] After incubation for 1 h at RT, the wells were washed and the color was developed as described above.

Data set [3] addresses T3, Insulin receptor (Homo sapiens, UniProt P06213).
T3 construct: composed of the extracellular domains of both the α and β chains of the natural receptor; made in house; background b13 names human embryonic kidney 293 cells for the Bass et al. construct
Put plainly: Heterogeneous time-resolved fluorescence assay (TRFA) on insulin receptor. Type of data set: binding. As to the method:
In this assay, saEu forms a ternary complex with bP and IR (i.e., IR:bP:saEu complex). The TRFD assay format is well established, sensitive, and quantitative (Tompkins et al., 1993). The assay can use a single-chain antibody or a biotinylated peptide.
In these assays, soluble IR is coated on the surface of microtiter wells, blocked by a solution of 0.5% BSA and 2% non-fat milk in PBS, and then incubated with biotinylated peptide or rVab. Unbound bP is then washed away and saEu is added to complex with receptor-bound bP. Upon addition of the acidic enhancement solution, the bound europium is released as free Eu^3+ which rapidly forms a highly fluorescent and stable complex with components of the enhancement solution. The IR:bP bound saEu is then converted into its highly fluorescent state and detected by a detector such as Wallac Victor II (EG&G Wallac, Inc.)
• a. Heterogeneous Time-Resolved Fluorescence Assay. […] The plates were blocked with TBS containing 2% milk and 0.5% BSA for 1 h at RT followed by three TBS washes. […] After TBS wash, europium-labeled streptavidin at 1 µg/ml in assay buffer (100 mM Tris-HCl, pH 7.8; 150 mM NaCl; 0.5% BSA; 0.05% bovine Ig; 0.05% NaN3; 0.01% Tween-20) was added to the plates and incubated for 1 h. To test binding of rVab antibodies to IR, Eu-labeled rVab antibodies in assay buffer were added to the plates and incubated for 2 h to overnight. After incubation with Eu-labeled streptavidin (for peptide test) or europium-labeled rVabs, the plates were washed 5 times with Tris-buffered saline (pH 7.5) containing 0.1 % Tween-20 (TTBS) and tapped dry. Sixty microliters of EG&G Wallac enhancement solution (100 mM acetone-potassium hydrogen pthalate, pH 3.2; […] 2-naphtyltrifluoroacetate; […] tri(n-octyl)-phosphine oxide; 0.1 % Triton X-100) was added into each well, and the plates were placed onto a shaker for 20 min at RT. […] Homogeneous Time-Resolved Fluorescence Assay. […] For library screening, 20 µM of small organic molecules in 2 % DMSO are included in the mixture.

Data set [4] deals with T4, purified insulin receptor (Homo sapiens, UniProt P06213).
T4 construct: host or cells: 'Wheat Germ Agglutinin Expression System' (so in the source)
T4 sequence (P06213 28-758 limits assumed): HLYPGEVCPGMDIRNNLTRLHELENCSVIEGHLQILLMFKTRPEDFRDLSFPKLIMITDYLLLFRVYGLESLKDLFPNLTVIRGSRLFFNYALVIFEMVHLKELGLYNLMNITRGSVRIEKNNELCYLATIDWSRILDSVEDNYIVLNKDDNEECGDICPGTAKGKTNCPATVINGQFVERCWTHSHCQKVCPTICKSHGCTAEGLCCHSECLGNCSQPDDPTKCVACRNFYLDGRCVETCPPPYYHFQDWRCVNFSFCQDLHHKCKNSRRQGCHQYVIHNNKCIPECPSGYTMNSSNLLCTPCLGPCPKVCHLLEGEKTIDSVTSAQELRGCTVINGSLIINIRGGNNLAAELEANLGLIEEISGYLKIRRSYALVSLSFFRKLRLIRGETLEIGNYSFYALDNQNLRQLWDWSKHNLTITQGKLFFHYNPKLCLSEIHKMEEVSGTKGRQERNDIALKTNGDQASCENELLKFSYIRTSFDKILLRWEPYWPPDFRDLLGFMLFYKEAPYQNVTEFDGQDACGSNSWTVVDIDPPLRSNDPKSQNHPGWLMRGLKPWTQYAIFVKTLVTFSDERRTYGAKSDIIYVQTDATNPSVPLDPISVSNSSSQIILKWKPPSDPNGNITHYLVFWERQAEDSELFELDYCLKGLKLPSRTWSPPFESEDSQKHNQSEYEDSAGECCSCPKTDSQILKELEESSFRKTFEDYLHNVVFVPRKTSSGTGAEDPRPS
T4 sequence (P06213 763-1382 limits assumed): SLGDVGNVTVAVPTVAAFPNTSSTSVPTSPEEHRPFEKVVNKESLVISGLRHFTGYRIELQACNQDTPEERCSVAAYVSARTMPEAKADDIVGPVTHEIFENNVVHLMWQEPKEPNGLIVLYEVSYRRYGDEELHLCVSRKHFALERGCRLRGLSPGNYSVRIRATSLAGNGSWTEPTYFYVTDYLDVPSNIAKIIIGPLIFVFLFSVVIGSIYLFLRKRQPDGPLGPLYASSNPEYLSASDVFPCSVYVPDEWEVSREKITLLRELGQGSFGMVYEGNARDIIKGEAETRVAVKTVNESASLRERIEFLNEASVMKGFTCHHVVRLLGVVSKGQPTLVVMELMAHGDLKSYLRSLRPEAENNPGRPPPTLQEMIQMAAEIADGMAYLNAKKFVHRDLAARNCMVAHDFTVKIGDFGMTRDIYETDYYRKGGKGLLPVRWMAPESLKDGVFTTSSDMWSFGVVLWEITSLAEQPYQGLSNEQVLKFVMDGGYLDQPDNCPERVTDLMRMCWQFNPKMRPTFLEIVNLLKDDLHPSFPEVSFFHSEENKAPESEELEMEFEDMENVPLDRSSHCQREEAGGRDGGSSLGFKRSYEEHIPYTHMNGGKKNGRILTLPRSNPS
Put plainly: Holoenzyme phosphorylation assay (IR autophosphorylation, Western blot). Type of data set: biochemical. As to the method:
Alternatively, IR autophosphorylation was determined using a holoenzyme phosphorylation assay. […] The reaction was stopped by adding 50 µl of gel loading buffer containing β-mercaptoethanol (Bio-Rad Laboratories, Inc., Hercules, CA). The samples were run on 4-12% SDS-polyacrylamide gels. Western Blot analysis was performed by transferring the proteins onto nitrocellulose membrane. The membrane was blocked in PBS containing 3% milk overnight. The membrane was incubated with anti-phosphotyrosine 4G10 HRP labeled antibody (Upstate Biotechnology) for 2 h. Protein bands were visualized using SuperSignal West Dura Extended Duration Substrate Chemiluminescence Detection System (Pierce Chemical Co.).

In another data set the test system is adipocytes. As to the kind of experiment: 3H-glucose uptake into adipocytes (fat cell assay, FFC). The following applies: for ED50: Estimated, not calculated values; for Resp.: Subjective ranking, basal and sub maximal insulin, includes series A. Type of data set: cell-based, Mouse. More on the design: key to Resp.: -2 (antagonist); +2 (agonist).
Data set [5] deals with human IGF-1 receptor (HIGF-1R) (Homo sapiens, UniProt P08069). Put plainly: 125I-IGF-1 competition binding assay on solubilised purified receptor. The following applies: Kd HIGF1R / Kd HIR.
human IGF-1 receptor (HIGF-1R), sequence (P08069 31-736 limits assumed): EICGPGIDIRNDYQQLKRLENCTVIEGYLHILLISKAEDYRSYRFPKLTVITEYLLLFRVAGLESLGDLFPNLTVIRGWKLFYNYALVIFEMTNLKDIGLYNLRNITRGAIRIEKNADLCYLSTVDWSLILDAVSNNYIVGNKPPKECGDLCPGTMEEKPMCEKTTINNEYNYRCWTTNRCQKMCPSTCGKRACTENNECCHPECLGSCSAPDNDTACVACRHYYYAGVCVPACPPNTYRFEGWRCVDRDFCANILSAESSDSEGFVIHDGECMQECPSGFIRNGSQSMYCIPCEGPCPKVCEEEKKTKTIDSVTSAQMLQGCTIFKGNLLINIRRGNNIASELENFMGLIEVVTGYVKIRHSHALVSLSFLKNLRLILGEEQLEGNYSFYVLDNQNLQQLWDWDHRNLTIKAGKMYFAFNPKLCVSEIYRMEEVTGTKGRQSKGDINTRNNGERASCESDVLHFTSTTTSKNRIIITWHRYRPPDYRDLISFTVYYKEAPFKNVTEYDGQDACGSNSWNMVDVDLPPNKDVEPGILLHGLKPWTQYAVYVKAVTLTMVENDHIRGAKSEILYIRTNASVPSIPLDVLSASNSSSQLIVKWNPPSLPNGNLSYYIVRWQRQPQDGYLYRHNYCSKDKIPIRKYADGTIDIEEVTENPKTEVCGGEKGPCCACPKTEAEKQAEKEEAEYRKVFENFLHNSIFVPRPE
human IGF-1 receptor (HIGF-1R), sequence (P08069 741-1367 limits assumed): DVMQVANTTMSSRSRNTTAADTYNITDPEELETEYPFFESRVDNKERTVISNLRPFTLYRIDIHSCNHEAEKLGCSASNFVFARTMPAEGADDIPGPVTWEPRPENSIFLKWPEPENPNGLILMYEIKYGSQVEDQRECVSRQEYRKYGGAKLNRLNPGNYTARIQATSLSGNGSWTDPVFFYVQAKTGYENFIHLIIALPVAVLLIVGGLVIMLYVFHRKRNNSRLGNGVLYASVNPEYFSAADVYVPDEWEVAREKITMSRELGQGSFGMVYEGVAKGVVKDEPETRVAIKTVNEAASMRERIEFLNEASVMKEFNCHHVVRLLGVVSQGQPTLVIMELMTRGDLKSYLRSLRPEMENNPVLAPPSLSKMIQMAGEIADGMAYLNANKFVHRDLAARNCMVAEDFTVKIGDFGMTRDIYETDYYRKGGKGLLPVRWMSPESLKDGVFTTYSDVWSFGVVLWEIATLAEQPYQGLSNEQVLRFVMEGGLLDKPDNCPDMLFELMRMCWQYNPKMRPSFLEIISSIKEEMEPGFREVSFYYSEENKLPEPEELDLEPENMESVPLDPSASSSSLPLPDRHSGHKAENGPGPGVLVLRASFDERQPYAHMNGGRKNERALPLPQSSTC
Data set [6] concerns the target T2, IGF-1R. Put plainly: Phage ELISA, competition of phage binding by soluble synthetic peptides, IGF-1R-coated wells. The following applies: IGF Receptor.
Experimental: (§1) Peptide Competition. […] Twenty microliters of the stock synthetic-peptide solution was added to Row A. A series of 20 µl into 100 µl dilutions were performed until Row G. Twenty microliters were discarded from Row G to maintain 100 µl per well. Row H was reserved as no peptide wells. […] The volume was maintained by the addition of 18 µl of the phage solution to Row A.
(§2) Phage ELISA. […] The wells were blocked with 200 µl of 2% (w/v) Carnation non-fat dry milk in PBS for 1.5 h at RT. Phage were added at 100 µl per well. Peptides were added as noted below and allowed to incubate at RT for 3 h. The plates were washed 3X with PBST. A solution of 1:3000 diluted HRP:Anti-M13 Conjugate at 100 µl per well of was added for 1 h. Following a repeat of the washing, 100 µl of ABTS was added for 15-30 min. The OD405 was measured using a SpectraMax 340 Microplate Spectrophotometer.
(§3) Peptide Competition. Peptide Competition Curves were produced during the phage ELISA across rows in triplicate. The stock synthetic peptide solution was added to Column 12 so that the total volume totaled 150 µl (additional phage solution was added when necessary). A serial dilution was made by transferring 50 µl from Column 12 into 100 µl in Column 11, 50 µl from Column 11 into 100 µl in Column 10, and continuing the serial dilution until Column 2. Fifty microliters were discarded from Column 2 to maintain 100 µl per well. Column 1 was reserved as no peptide wells.
(§4) A p53-like peptide that binds to MDM2 was used as a negative control.
Data set [7] addresses T1, IR. Put plainly: Phage ELISA, competition of phage binding by soluble synthetic peptides, IR-coated wells. The conditions noted are these: Insulin Receptor.
Experimental: as §1, §2, §3, §4
Data set [8] in a line: Precipitate in diluted peptide stock prior to adding to the fat cell assay; solubility under assay conditions. It counts as physicochemical.
In data set [9] the test system is FDCP2 cells (NIH) which express IGF-1R. Put plainly: FDCP2 cell proliferation (WST-1), agonism. The following applies: not against IGF-1 R- cells. It counts as cell-based. As to the method:
Agonistic and antagonistic activities of the IGF-1-specific peptides were tested in FDCP2 cells (NIH) which express IGF-1R. […] Agonism activity assays were performed in a total volume of 100 µl in 96 well plates (flat bottom).
Proliferation assays were performed using WST-1 reagent. The WST-1 tetrazolium salt (slightly red) is cleaved to formazan (dark red) by the succinate-tetrazolium reductase system, which is active only in viable cells. An increase in the number of cells results in an increase in the overall activity of the dehydrogenase which results in a higher absorbance at 450 nm. […] Proliferation was measured by absorbance at 450 nm.

Data set [10] deals with T2, IGF-1R. As to the kind of experiment: Phage ELISA, binding of phage-displayed peptides to IGF-1R. The conditions noted are these: 405 nm. As to the method:
Figures 1A-10G. Amino acid sequences comprising the motif of Formulas 1 through 10. […] One hundred microliters of this solution was added to an appropriate number of wells in a 96-well microtiter plate (MaxiSorp plates, Nunc) and incubated overnight at 4°C. […] Subsequent steps are the same for pooled and clonal phage. […] Phage resuspended in MPBS were added to duplicate wells (100 µl/well) and incubated at RT for 1 h. […] Incubation was for 1 h at RT, followed by PBS washes as described. […] Phage ELISA. […] The wells were blocked with 200 µl of MPBS for 1.5 h at RT. Phage were added at 100 µl per well. Peptides were added as noted below and allowed to incubate at RT for 3 h. The plates were washed 3 times with PBST. A solution of 1:3000 diluted HRP:Anti-M13 conjugate at 100 µl per well of was added for 1 h. Following a repeat of the washing, 100 µl of ABTS was added for 15-30 min. […] Phage ELISA. […] Phage were added at 100 µl per well. Peptides were added as noted below and allowed to incubate at RT for 3 h. The plates were washed 3X with PBST. A solution of 1:3000 diluted HRP:Anti-M13 Conjugate at 100 µl per well of was added for 1 h. Following a repeat of the washing, 100 µl of ABTS was added for 15-30 min. The OD405 was measured using a SpectraMax 340 Microplate Spectrophotometer.

The target of data set [11] is T3, Insulin receptor. As to the kind of experiment: BIAcore competition: IR pre-incubated with test substance, injected over immobilised insulin. The following applies: peptide about 40 µM, IR 450 nM; IR alone 128 RU. It counts as binding. As to the method:
Flowcell-1 was used for background binding to correct for any non-specific binding. […] The surface was regenerated with 25 mM NaOH. […] Thus, the system was validated for competition studies. […] The amino acid sequences referred to in the tables are identified in Figures 47 and 48, except the 447 and 2A9 sequences, which are shown below. TABLE 9: BIAcore Results-Fusion Proteins Compete for Binding to IR

Positions of bridges follow the written chain, without caps; N, C: chain ends. Residues, ends and D or L forms follow the SMILES beside them. No end group written: not given here. *: point of attachment. Biotin = O=C1N[C@H]2[C@H](CS[C@H]2CCCCC(=O)*)N1 A value given as a limit tells only on which side of the number the result lay.

T1 sequence (P06213 28-758 limits assumed): as the sequence (P06213 28-758 limits assumed) above
T1 sequence (P06213 763-956 limits assumed): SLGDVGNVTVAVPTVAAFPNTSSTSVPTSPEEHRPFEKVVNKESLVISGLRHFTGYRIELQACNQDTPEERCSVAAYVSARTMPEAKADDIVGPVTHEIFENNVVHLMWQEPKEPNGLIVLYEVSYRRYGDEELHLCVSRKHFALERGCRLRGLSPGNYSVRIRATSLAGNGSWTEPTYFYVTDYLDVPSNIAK
T3 sequence (P06213 28-758 limits assumed): as the sequence (P06213 28-758 limits assumed) above
T3 sequence (P06213 763-956 limits assumed): as the sequence (P06213 763-956 limits assumed) above
T2 sequence (P08069 31-736 limits assumed): as the sequence (P08069 31-736 limits assumed) above
T2 sequence (P08069 741-935 limits assumed): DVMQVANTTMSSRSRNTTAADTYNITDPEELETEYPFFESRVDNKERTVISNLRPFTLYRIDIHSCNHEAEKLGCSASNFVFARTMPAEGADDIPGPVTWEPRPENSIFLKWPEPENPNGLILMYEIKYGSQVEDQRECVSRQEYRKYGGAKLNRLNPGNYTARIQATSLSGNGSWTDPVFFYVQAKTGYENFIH

With WNTVDPFYHKLSELLREKK [Clone B6], the “binding to IR when expressed as phage” value at IR [1] was “do not have detectable binding”. Besides, the “inhibition of phage binding to immobilized IGF-1R by IGF-1” value on IGF-1R [2] was “could be inhibited with IGF-1”. Besides, the “competition with binding of 12H10 to IR” value at Insulin receptor [3] was “do not compete”.

In the case of `CC[C@H](C)[C@@H]1NC(=O)[C@H](CCCNC(=N)N)NC(=O)[C@H](C(C)C)NC(=O)CNC(=O)[C@H](Cc2c[nH]c3ccccc23)NC(=O)[C@H](CO)NC(=O)[C@H](CCC(N)=O)NC(=O)[C@@H](NC(=O)[C@H](CC(C)C)NC(=O)[C@H](CC(=O)O)NC(=O)[C@H](CCCCN)NC(=O)[C@H](Cc2ccc(O)cc2)NC(=O)[C@@H](N)CC(=O)O)CSSC[C@@H](C(=O)N2CCC[C@H]2C(=O)N[C@@H](CCCCN)C(=O)N[C@@H](CCCCNC(=O)CCCC[C@@H]2SC[C@@H]3NC(=O)N[C@@H]32)C(N)=O)NC(=O)[C@H](CC(C)C)NC(=O)CNC(=O)[C@H](C)NC(=O)[C@H](CC(C)C)NC(=O)[C@H](Cc2c[nH]c3ccccc23)NC(=O)CNC1=O` [JBA5] (H-DYKDLCQSWGVRIGWLAGLCPKK(Biotin)-NH2; disulfide 6-20 (inferred); N-terminus assumed), the “binding to IR when expressed as phage” value at IR [1] is given as “do not have detectable binding”. The “Autophosph. Blot” value in [4] is 0. Besides, in the data set with adipocytes, the “Comments (dose response, effect at basal insulin)” value is recorded as “Slight effect at basal insulin”; the ED50 is reported as more than 20 µM; the Resp. entry is listed as “+2”. Further, the Ratio in [5] turned out to be 1.8.

In the case of FHENFYDWFVRQVSKK [Clone H2C], the “Comments (dose response, effect at basal insulin)” value in the data set with adipocytes is “Some response at basal insulin”. Besides, the ED50 result in the data set with adipocytes is listed as “Approx 20 µM”. Moreover, in the data set on adipocytes, the Resp. entry is “+2”. The “ED50 in the effect assay (FFC)” value in the data set on adipocytes (best peptides, agonists) is 20 to 30 µM. The “n (Hill plot)” value at IGF-1R [6] (20D3 Phage) is listed as 0.81; at IGF-1R [6] (H2 Phage), 1.02; on IR [7] (20D3 Phage) it was 1.03; on IR [7] (H2 Phage), 0.62. The “Comments (precipitation)” value in data set [8] (diluted stock prior to adding to assay) is “Precipitates”. For the same compound, in data set [8] (under assay conditions, no ppt in microscope, low magnification), the “Comments (soluble under assay conditions)” value is reported as not below 20 µM. Further, the “binding of rVab 12H10 to IR” value at Insulin receptor [3] (peptide at 30 µM) is 40-50 % of control. In data set [5], the Ratio is listed as 8.6.

For the compound LCQRLGVGWPGWLSGWCA [Clone H5], the “activity toward IGF-1 R+ cells in cell culture” value in [9] was “agonistic activity”.

`CC[C@H](C)[C@H](NC(=O)[C@H](CCC(=O)O)NC(=O)[C@@H](N)CCCCN)C(=O)N[C@@H](CCC(=O)O)C(=O)N[C@@H](C)C(=O)N[C@@H](CCC(=O)O)C(=O)N[C@@H](Cc1c[nH]c2ccccc12)C(=O)NCC(=O)N[C@@H](CCCNC(=N)N)C(=O)N[C@H](C(=O)N[C@@H](CCCNC(=N)N)C(=O)N[C@H]1CSSC[C@@H](C(=O)N[C@H](C(=O)NCC(=O)NCC(=O)N[C@@H](CCCCN)C(=O)N[C@@H](CCCCNC(=O)CCCC[C@@H]2SC[C@@H]3NC(=O)N[C@@H]32)C(N)=O)C(C)C)NC(=O)[C@H](CCCNC(=N)N)NC(=O)CNC(=O)[C@H](Cc2ccc(O)cc2)NC(=O)[C@H](C(C)C)NC(=O)[C@H](CC(C)C)NC1=O)C(C)C` [Clone 20A4] (H-KEIEAEWGRVRCLVYGRCVGGKK(Biotin)-NH2; disulfide 12-18 (inferred); N-terminus assumed): the “Absorbance Values IR” value at IR [1] (405 nm) was 1.61. Moreover, in data set [4], the “Autophosph. Blot” value amounted to 0. For the same compound, in the data set with adipocytes, the Resp. is -1. On IGF-1R [10], the “Absorbance Values sIGF-1R” value worked out at 0.21. Further, the “Result (RUs)” value on Insulin receptor [11] stood at 41.8 RUs.
